{
  "source": "ChEMBL document CHEMBL3734750",
  "about": "“A click chemistry approach for the synthesis of mono and bis aryloxy linked coumarinyl triazoles as anti-tubercular agents” (2015)",
  "key": {"[1]": {"system": "Mycobacterium tuberculosis", "assay": "Antitubercular activity against Mycobacterium tuberculosis after 5 days by microplate Alamar blue assay", "assay_type": "functional", "conditions": "120 h"}, "[2]": {"system": "Mycobacterium tuberculosis", "assay": "Antitubercular activity against Mycobacterium tuberculosis H37Rv after 5 days by microplate Alamar blue assay", "assay_type": "functional", "conditions": "for MIC: Mycobacterium tuberculosis, H37Rv, 120 h"}},
  "data": [
    {"smiles": "Cc1cc(=O)oc2cc(OCc3cn(Cc4cc(=O)oc5ccc(Cl)cc45)nn3)ccc12", "values": [
      {"measurement": "MIC", "setting": "[1]", "result": 6.25, "unit": "µg/mL"}
    ]},
    {"smiles": "Cc1ccc2oc(=O)cc(Cn3cc(COc4ccc(Cl)cc4)nn3)c2c1", "values": [
      {"measurement": "-logMIC", "setting": "[2]", "result": 4.3},
      {"measurement": "MIC", "setting": "[2]", "result": 50, "unit": "µg/mL"}
    ]},
    {"smiles": "COc1ccc2oc(=O)cc(Cn3cc(COc4ccc(Br)cc4)nn3)c2c1", "values": [
      {"measurement": "-logMIC", "setting": "[2]", "result": 4.3},
      {"measurement": "MIC", "setting": "[2]", "result": 50, "unit": "µg/mL"}
    ]},
    {"smiles": "O=c1cc(Cn2cc(COc3ccc(Cl)cc3)nn2)c2cc(Br)ccc2o1", "values": [
      {"measurement": "-logMIC", "setting": "[2]", "result": 4.3},
      {"measurement": "MIC", "setting": "[2]", "result": 50, "unit": "µg/mL"}
    ]},
    {"smiles": "COc1ccc(OCc2cn(Cc3cc(=O)oc4ccc(C)cc34)nn2)cc1", "values": [
      {"measurement": "-logMIC", "setting": "[2]", "result": 4.3},
      {"measurement": "MIC", "setting": "[2]", "result": 50, "unit": "µg/mL"}
    ]},
    {"smiles": "Cc1ccc2oc(=O)cc(Cn3cc(COc4ccc(Br)cc4)nn3)c2c1", "values": [
      {"measurement": "-logMIC", "setting": "[2]", "result": 4.3},
      {"measurement": "MIC", "setting": "[2]", "result": 50, "unit": "µg/mL"}
    ]},
    {"smiles": "O=c1cc(Cn2cc(COc3ccc(Br)cc3)nn2)c2c(ccc3ccccc32)o1", "values": [
      {"measurement": "-logMIC", "setting": "[2]", "result": 4},
      {"measurement": "MIC", "setting": "[2]", "result": 50, "unit": "µg/mL"}
    ]},
    {"smiles": "O=c1cc(Cn2cc(COc3ccc(Br)cc3)nn2)c2ccc3ccccc3c2o1", "values": [
      {"measurement": "-logMIC", "setting": "[2]", "result": 4},
      {"measurement": "MIC", "setting": "[2]", "result": 100, "unit": "µg/mL"}
    ]},
    {"smiles": "Cc1ccc2oc(=O)cc(Cn3cc(COc4ccc(OCc5cn(Cc6cc(=O)oc7ccc(C)cc67)nn5)cc4)nn3)c2c1", "values": [
      {"measurement": "-logMIC", "setting": "[2]", "result": 6.69},
      {"measurement": "MIC", "setting": "[2]", "result": 0.2, "unit": "µg/mL"}
    ]},
    {"smiles": "O=c1cc(Cn2cc(COc3ccc(Br)cc3)nn2)c2cc(Br)ccc2o1", "values": [
      {"measurement": "-logMIC", "setting": "[2]", "result": 4.3},
      {"measurement": "MIC", "setting": "[2]", "result": 50, "unit": "µg/mL"}
    ]},
    {"smiles": "COc1ccc(OCc2cn(Cc3cc(=O)oc4ccc(Br)cc34)nn2)cc1", "values": [
      {"measurement": "-logMIC", "setting": "[2]", "result": 4.3},
      {"measurement": "MIC", "setting": "[2]", "result": 50, "unit": "µg/mL"}
    ]},
    {"smiles": "O=c1cc(Cn2cc(COc3ccc(Br)cc3)nn2)c2ccc(Cl)cc2o1", "values": [
      {"measurement": "-logMIC", "setting": "[2]", "result": 4.3},
      {"measurement": "MIC", "setting": "[2]", "result": 50, "unit": "µg/mL"}
    ]},
    {"smiles": "O=C(O)c1cn(C2CC2)c2cc(N3CCNCC3)c(F)cc2c1=O", "note": "[CIPROFLOXACIN]", "values": [
      {"measurement": "MIC", "setting": "[2]", "result": 3.12, "unit": "µg/mL"}
    ]},
    {"smiles": "NC(=O)c1cnccn1", "note": "[PYRAZINAMIDE]", "values": [
      {"measurement": "MIC", "setting": "[2]", "result": 3.12, "unit": "µg/mL"}
    ]},
    {"smiles": "COc1ccc(OCc2cn(Cc3cc(=O)oc4ccc(OC)cc34)nn2)cc1", "values": [
      {"measurement": "-logMIC", "setting": "[2]", "result": 4.3},
      {"measurement": "MIC", "setting": "[2]", "result": 50, "unit": "µg/mL"}
    ]},
    {"smiles": "O=c1cc(Cn2cc(COc3ccc(Cl)cc3)nn2)c2ccc(Cl)cc2o1", "values": [
      {"measurement": "-logMIC", "setting": "[2]", "result": 4.3},
      {"measurement": "MIC", "setting": "[2]", "result": 50, "unit": "µg/mL"}
    ]},
    {"smiles": "COc1ccc(OCc2cn(Cc3cc(=O)oc4cc(C)cc(C)c34)nn2)cc1", "values": [
      {"measurement": "-logMIC", "setting": "[2]", "result": 4.3},
      {"measurement": "MIC", "setting": "[2]", "result": 50, "unit": "µg/mL"}
    ]},
    {"smiles": "O=c1cc(Cn2cc(COc3ccc(Cl)cc3)nn2)c2c(ccc3ccccc32)o1", "values": [
      {"measurement": "-logMIC", "setting": "[2]", "result": 4.3},
      {"measurement": "MIC", "setting": "[2]", "result": 50, "unit": "µg/mL"}
    ]},
    {"smiles": "Cc1ccc2c(Cn3cc(COc4ccc(OCc5cn(Cc6cc(=O)oc7cc(C)ccc67)nn5)cc4)nn3)cc(=O)oc2c1", "values": [
      {"measurement": "-logMIC", "setting": "[2]", "result": 5.2},
      {"measurement": "MIC", "setting": "[2]", "result": 6.25, "unit": "µg/mL"}
    ]},
    {"smiles": "COc1ccc2c(Cn3cc(COc4ccc(OCc5cn(Cc6cc(=O)oc7cc(OC)ccc67)nn5)cc4)nn3)cc(=O)oc2c1", "values": [
      {"measurement": "-logMIC", "setting": "[2]", "result": 5.2},
      {"measurement": "MIC", "setting": "[2]", "result": 6.25, "unit": "µg/mL"}
    ]},
    {"smiles": "Cc1ccc2c(Cn3cc(COc4ccc(Br)cc4)nn3)cc(=O)oc2c1", "values": [
      {"measurement": "-logMIC", "setting": "[2]", "result": 4.3},
      {"measurement": "MIC", "setting": "[2]", "result": 50, "unit": "µg/mL"}
    ]},
    {"smiles": "COc1ccc(OCc2cn(Cc3cc(=O)oc4c3ccc3ccccc34)nn2)cc1", "values": [
      {"measurement": "-logMIC", "setting": "[2]", "result": 4.3},
      {"measurement": "MIC", "setting": "[2]", "result": 50, "unit": "µg/mL"}
    ]},
    {"smiles": "O=c1cc(Cn2cc(COc3ccc(OCc4cn(Cc5cc(=O)oc6c5ccc5ccccc56)nn4)cc3)nn2)c2ccc3ccccc3c2o1", "values": [
      {"measurement": "-logMIC", "setting": "[2]", "result": 4.93},
      {"measurement": "MIC", "setting": "[2]", "result": 12.5, "unit": "µg/mL"}
    ]},
    {"smiles": "CN[C@@H]1[C@H](O[C@H]2[C@H](O[C@H]3[C@H](O)[C@@H](O)[C@H](N=C(N)N)[C@@H](O)[C@@H]3N=C(N)N)O[C@@H](C)[C@]2(O)C=O)O[C@@H](CO)[C@H](O)[C@H]1O", "note": "[STREPTOMYCIN]", "values": [
      {"measurement": "MIC", "setting": "[2]", "result": 6.25, "unit": "µg/mL"}
    ]},
    {"smiles": "Cc1cc(C)c2c(Cn3cc(COc4ccc(OCc5cn(Cc6cc(=O)oc7cc(C)cc(C)c67)nn5)cc4)nn3)cc(=O)oc2c1", "values": [
      {"measurement": "-logMIC", "setting": "[2]", "result": 5.2},
      {"measurement": "MIC", "setting": "[2]", "result": 6.25, "unit": "µg/mL"}
    ]},
    {"smiles": "COc1ccc(OCc2cn(Cc3cc(=O)oc4cc(C)ccc34)nn2)cc1", "values": [
      {"measurement": "-logMIC", "setting": "[2]", "result": 4.3},
      {"measurement": "MIC", "setting": "[2]", "result": 50, "unit": "µg/mL"}
    ]},
    {"smiles": "Cc1ccc2c(Cn3cc(COc4ccc(Cl)cc4)nn3)cc(=O)oc2c1", "values": [
      {"measurement": "-logMIC", "setting": "[2]", "result": 4.3},
      {"measurement": "MIC", "setting": "[2]", "result": 50, "unit": "µg/mL"}
    ]},
    {"smiles": "COc1ccc(OCc2cn(Cc3cc(=O)oc4cc(Cl)ccc34)nn2)cc1", "values": [
      {"measurement": "-logMIC", "setting": "[2]", "result": 4.3},
      {"measurement": "MIC", "setting": "[2]", "result": 50, "unit": "µg/mL"}
    ]},
    {"smiles": "COc1ccc(OCc2cn(Cc3cc(=O)oc4ccc5ccccc5c34)nn2)cc1", "values": [
      {"measurement": "-logMIC", "setting": "[2]", "result": 4.3},
      {"measurement": "MIC", "setting": "[2]", "result": 50, "unit": "µg/mL"}
    ]},
    {"smiles": "Cc1ccc2c(Cn3cc(COc4ccc(OCc5cn(Cc6cc(=O)oc7c(C)c(C)ccc67)nn5)cc4)nn3)cc(=O)oc2c1C", "values": [
      {"measurement": "-logMIC", "setting": "[2]", "result": 5.5},
      {"measurement": "MIC", "setting": "[2]", "result": 3.12, "unit": "µg/mL"}
    ]},
    {"smiles": "COc1ccc(OCc2cn(Cc3cc(=O)oc4cc(OC)ccc34)nn2)cc1", "values": [
      {"measurement": "-logMIC", "setting": "[2]", "result": 4.3},
      {"measurement": "MIC", "setting": "[2]", "result": 50, "unit": "µg/mL"}
    ]}
  ]
}
